Test results reported in patent publication US7977317B2, “Compositions and methods for modulating blood-brain barrier transport” (Raptor Pharmaceutical Inc., priority 2001, dated 2011).

What was measured:
[1] = system: BBCEC monolayers; assay: Accumulation of ligands in BBCEC monolayers; assay type: cell-based, bovine; conditions: FIG. 7
Experimental: FIG. 7 illustrates the results of experiments where the ligands p97, Lf and Tf were heated or not heated prior to the binding study. In all cases, binding experiments were conducted in the transwell apparatus as described previously, with the exception that binding was conducted at either 4° C. or at 37° C. For the 37° C. trial, a separate experiment was conducted where the ligand was boiled for 30 mins then rapidly cooled prior to administration on the transwell plates.
FIG. 13 illustrates the transcytosis and accumulation of p97 and transferrin in BBCEC monolayers. FIG. 13a, Transcytosis experiments were performed at 37° C. (solid bars) or 4° C. (white bars). [^125I]-p97 or bovine [^125I]-holo-transferrin (1 mg/ml) was added to the upper side of the cell-covered filter. At the end of the experiment, radiolabelled proteins were measured in the lower chamber of each well by TCA precipitation (n=4). […] The surface plasmon resonance response obtained for native p97 and boiled p97 was plotted (in relative units (RU)) as a function of time; FIG. 13c, The accumulation of both proteins into BBEC cells were also measured. […] Accumulation of both denatured proteins (grey bars) was also measured at 37° C. Filters were then removed, and the radioactivity associated with the cells was quantified (n=3). […]

[2] = target: BBCEC monolayers; conditions: +saponin, published value; cited from earlier work
[3] = In situ brain perfusion with capillary depletion; assay type: in vivo; conditions: mice, 10 min perfusion, 10 nM [125I]-protein (FIG. 11b)
Experimental: FIG. 11 examines the accumulation and transcytosis of p97. FIG. 11a, of [^125I]-p97, [^125I]-BSA and [^125I]-holo-transferrin one hour after i.v. injection. The radioactivity in brain was compared between the three compounds. (n=3); FIG. 11b, Accumulation of p97 and transferrin into the mouse brain parenchyma. In situ brain perfusion was performed with human [^125I]-p97 or [^125I]-holo-transferrin at a final concentration of 10 nM via a catheter inserted in the right common carotid artery. The volume of distribution (VD) of [^125I]-proteins were obtained in the whole brain homogenate (white bars), in brain capillaries (solid bars) and in brain parenchyma (hatched bars) after isolation of the right hemisphere and capillary depletion. Results were obtained for p97 (n=10) and for holo-transferrin (n=6); FIG. 11c, Transcytosis of p97 across BBCEC monolayers. Transcytosis experiments were performed 37° C. (open circles) and 4° C. (closed circles) with BBCEC monolayers. […] Apical-to-basal and basal-to-apical transport of [^125I]-p97 (25 nM) was measured for 2 hrs at 37° C. At the end of the experiment, [^125I]-p97 was assessed in the lower or upper chambers of each well by TCA precipitation (n=4).
A. Brain uptake and in situ brain perfusion. […] The serum and brain samples were collected and the levels of radioactivity were measured. […]

[4] = system: BBCEC monolayers; assay: Transcytosis across BBCEC monolayers (in vitro BBB model); assay type: cell-based, bovine
From the text: FIG. 10 assesses the ability of several agents to interfere with p97 transyctosis. FIG. 10a, transcytosis of I125-P97 was compared in the presence of cold p97 (5 micromolar), Lf (5 micromolar), and Tf (5 micromolar). […] FIG. 10c, RAP, a known poly-peptide inhibitor of the LDL-Receptor family was applied to the cells (25 micrograms/ml).
FIG. 11 examines the accumulation and transcytosis of p97. FIG. 11a, of [^125I]-p97, [^125I]-BSA and [^125I]-holo-transferrin one hour after i.v. injection. The radioactivity in brain was compared between the three compounds. (n=3); FIG. 11b, Accumulation of p97 and transferrin into the mouse brain parenchyma. In situ brain perfusion was performed with human [^125I]-p97 or [^125I]-holo-transferrin at a final concentration of 10 nM via a catheter inserted in the right common carotid artery. The volume of distribution (VD) of [^125I]-proteins were obtained in the whole brain homogenate (white bars), in brain capillaries (solid bars) and in brain parenchyma (hatched bars) after isolation of the right hemisphere and capillary depletion. Results were obtained for p97 (n=10) and for holo-transferrin (n=6); FIG. 11c, Transcytosis of p97 across BBCEC monolayers. Transcytosis experiments were performed 37° C. (open circles) and 4° C. (closed circles) with BBCEC monolayers. [^125I]-p97 (1 mg/ml) was added to the upper side of the cell-covered filter. One representative experiment is shown (n=4); FIG. 11d, Preferential transport of p97 across the BBCEC monolayers. Apical-to-basal and basal-to-apical transport of [^125I]-p97 (25 nM) was measured for 2 hrs at 37° C. At the end of the experiment, [^125I]-p97 was assessed in the lower or upper chambers of each well by TCA precipitation (n=4).
FIG. 13 illustrates the transcytosis and accumulation of p97 and transferrin in BBCEC monolayers. FIG. 13a, Transcytosis experiments were performed at 37° C. (solid bars) or 4° C. (white bars). [^125I]-p97 or bovine [^125I]-holo-transferrin (1 mg/ml) was added to the upper side of the cell-covered filter. At the end of the experiment, radiolabelled proteins were measured in the lower chamber of each well by TCA precipitation (n=4). Controls were also performed at 37° C. with denatured [^125I]-p97 or bovine [^125I]-holo-transferrin boiled for 30 min (grey bars) (n=2); FIG. 13b, Biospecific interaction analysis was performed with native or boiled p97 for the indicated times. MAb L235 (5 μg) was immobilized on a sensor chip (SM5) using standard procedures incorporating NHS, EDC and ethanolamine. Native and boiled p97 (5 to 30 min) diluted at 1 mg/ml in Ringer/Hepes was cooled and injected into the BIAcore. The surface plasmon resonance response obtained for native p97 and boiled p97 was plotted (in relative units (RU)) as a function of time; FIG. 13c, The accumulation of both proteins into BBEC cells were also measured. Briefly, after incubation at 37° C. (solid bars) or 4° C. (white bars) with either [^125I]-protein, cells were washed four times with cold PBS. Accumulation of both denatured proteins (grey bars) was also measured at 37° C. Filters were then removed, and the radioactivity associated with the cells was quantified (n=3).
FIG. 14 illustrates the stability of p97 and integrity of the BBCEC monolayers following p97 transcytosis. FIG. 14a, Transcytosis experiments were performed at 37° C. and 4° C. by adding p97 (1 mg/ml) to the upper compartment. At the end of the experiment, 50 μl from each lower chamber was used for SDS-polyacrylamide gel electrophoresis. After electrophoresis, the gels were stained with Coomassie Blue. A standard curve was also made with known amounts of recombinant p97 (0-2 μg); FIG. 14b. The gels were dried and scanned to quantify the amount of intact p97 that crossed the BBCEC monolayers at 37° C. and 4° C. (n=3); FIG. 14c, Effect of p97 on sucrose permeability of BBCE cell monolayers co-cultured with astrocytes. […]

Substance: transferrin: transferrin (Tf), iron-binding serum protein used as comparator and competitor
- Accumulation in BBB model cells [1]: very little accumulation
- Kd [2]: 11 nM
- Apparent VD in the brain parenchyma [3]: 2.4 ml/100 g
- Effect of heat-denaturation on passage through BBCEC monolayers ([4]; boiled 30 min, 37° C. (FIG. 13a)): reduced the passage
- Effect on transcytosis of 125I-p97 ([4]; competitor 5 micromolar (FIG. 10a, 10b)): only the cold p97 successfully reduced
